Data taken from patent US7700782B2, “Compounds 569” (AstraZeneca AB, priority 2007, dated 2010).
Where a name gives a salt, the structure may show the parent alone.

The compounds below were run against T1, Adrenergic β2 (Homo sapiens, UniProt P07550) (assay: Adrenergic β2 mediated cAMP production in H292 cells (AlphaScreen cAMP detection)). Conditions: Intrinsic Activity, fraction relative to the maximum activity determined for formoterol.
T1 construct: Adherent H292 cells were removed from tissue culture flasks; endogenous in cells; host or cells: H292 cells
Type: cell-based
Procedure: Adrenergic β2 Mediated cAMP Production
H292 cells were grown in 225 cm2 flasks incubator at 37° C., 5% CO2 in RPMI medium containing, 10% (v/v) FBS (foetal bovine serum) and 2 mM L-glutamine.
Adherent H292 cells were removed from tissue culture flasks by treatment with Accutase™ cell detachment solution for 15 minutes. Flasks were incubated for 15 minutes in a humidified incubator at 37° C., 5% CO2. Detached cells were re-suspended in RPMI media (containing 10% (v/v) FBS and 2 mM L-glutamine) at 0.05×10^6 cells per mL. 5000 cells in 100 μL were added to each well of a tissue-culture-treated 96-well plate and the cells incubated overnight in a humidified incubator at 37° C., 5% CO2. The culture media was removed and cells were washed twice with 100 μL assay buffer and replaced with 50 μL assay buffer (HBSS solution containing 10 mM HEPES pH 7.4 and 5 mM glucose). Cells were rested at room temperature for 20 minutes after which time 25 μL of rolipram (1.2 mM made up in assay buffer containing 2.4% (v/v) dimethylsulphoxide) was added. Cells were incubated with rolipram for 10 minutes after which time test compounds were added and the cells were incubated for 60 minutes at room temperature. The final rolipram concentration in the assay was 300 μM and final vehicle concentration was 1.6% (v/v) dimethylsulphoxide. The reaction was stopped by removing supernatants, washing once with 100 μL assay buffer and replacing with 50 μL lysis buffer. The cell monolayer was frozen at −80° C. for 30 minutes (or overnight).
The concentration of cAMP (cyclic adenosine monophosphate) in the cell lysate was determined using AlphaScreen™ methodology. The frozen cell plate was thawed for 20 minutes on a plate shaker then 10 μL of the cell lysate was transferred to a 96-well white plate. 40 μL of mixed AlphaScreen™ detection beads pre-incubated with biotinylated cAMP, was added to each well and the plate incubated at room temperature for 10 hours in the dark. The AlphaScreen™ signal was measured using an EnVision spectrophotometer (Perkin-Elmer Inc.) with the recommended manufacturer's settings. cAMP concentrations were determined by reference to a calibration curve determined in the same experiment using standard cAMP concentrations. Concentration response curves for agonists were constructed and data was fitted to a four parameter logistic equation to determine both the pEC50 and Intrinsic Activity. Intrinsic Activity was expressed as a fraction relative to the maximum activity determined for formoterol in each experiment.

T1 sequence (P07550 whole entry): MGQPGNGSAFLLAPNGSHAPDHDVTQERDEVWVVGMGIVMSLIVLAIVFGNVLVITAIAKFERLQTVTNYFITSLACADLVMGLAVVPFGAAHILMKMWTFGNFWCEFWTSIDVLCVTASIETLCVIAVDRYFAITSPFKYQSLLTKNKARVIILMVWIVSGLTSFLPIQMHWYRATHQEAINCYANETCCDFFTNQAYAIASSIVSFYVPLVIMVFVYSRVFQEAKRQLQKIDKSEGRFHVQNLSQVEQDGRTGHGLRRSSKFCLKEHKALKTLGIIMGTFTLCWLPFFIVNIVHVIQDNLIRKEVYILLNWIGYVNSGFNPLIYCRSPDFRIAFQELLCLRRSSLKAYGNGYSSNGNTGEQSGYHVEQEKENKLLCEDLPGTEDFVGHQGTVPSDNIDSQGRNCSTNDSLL

Structure (SMILES)	β2 Int Act
O=C(CCNCCc1ccc(O)c(Cl)c1)N(CCNCCc1ccc(O)c2[nH]c(=O)sc12)C1CCCCC1 [Example 89, N^3-[2-(3-chloro-4-hydroxyphenyl)ethyl]-N^1-cyclohexyl-N^1-(2-{[2-(4-hydroxy-2-oxo-2,3-dihydro-1,3-benzothiazol-7-yl)ethyl]amino}ethyl)-β-alaninamide bis-trifluoroacetic acid salt]	0.9
O=C(CCNCCc1ccccc1)N(CCNCCc1ccc(O)c2[nH]c(=O)sc12)C1CCCCCC1 [Example 23, N-Cycloheptyl-N-(2-{[2-(4-hydroxy-2-oxo-2,3-dihydro-1,3-benzothiazol-7-yl)ethyl]amino}ethyl)-N^3-(2-phenylethyl)-β-alaninamide bis-trifluoroacetic acid salt]	0.85
O=C(CCNCCc1ccccc1)N(CCNCCc1ccc(O)c2[nH]c(=O)sc12)C1CCC(F)(F)CC1 [Example 4, N-(4,4-Difluorocyclohexyl)-N-(2-{[2-(4-hydroxy-2-oxo-2,3-dihydro-1,3-benzothiazol-7-yl)ethyl]amino}ethyl)-N^3-(2-phenylethyl)-β-alaninamide bis-trifluoroacetic acid salt]	0.79
CC(C)(CNCCC(=O)N(CCNCCc1ccc(O)c2[nH]c(=O)sc12)C1CCCCC1)c1ccccc1 [Example 21, N-Cyclohexyl-N-(2-{[2-(4-hydroxy-2-oxo-2,3-dihydro-1,3-benzothiazol-7-yl)ethyl]amino}ethyl)-N^3-(2-methyl-2-phenylpropyl)-β-alaninamide bis-trifluoroacetic acid salt]	0.85
NS(=O)(=O)c1ccc(CCNCCC(=O)N(CCNCCc2ccc(O)c3[nH]c(=O)sc23)C2CCCCC2)cc1 [Example 69, N^3-{2-[4-(Aminosulfonyl)phenyl]ethyl}-N^1-cyclohexyl-N^1-(2-{[2-(4-hydroxy-2-oxo-2,3-dihydro-1,3-benzothiazol-7-yl)ethyl]amino}ethyl)-β-alaninamide bis-trifluoroacetic acid salt]	0.82
O=C(CCNCCc1ccc2c(c1)OCCO2)N(CCNCCc1ccc(O)c2[nH]c(=O)sc12)C1CCCCCC1 [Example 88, N^1-Cycloheptyl-N^3-[2-(2,3-dihydro-1,4-benzodioxin-6-yl)ethyl]-N^1-(2-{[2-(4-hydroxy-2-oxo-2,3-dihydro-1,3-benzothiazol-7-yl)ethyl]amino}ethyl)-β-alaninamide bis-trifluoroacetic acid salt]	0.37
O=C(CCNCCc1c(F)cccc1F)N(CCNCCc1ccc(O)c2[nH]c(=O)sc12)C1CCCCCC1 [Example 84, N^1-Cycloheptyl-N^3-[2-(2,6-difluorophenyl)ethyl]-N^1-(2-{[2-(4-hydroxy-2-oxo-2,3-dihydro-1,3-benzothiazol-7-yl)ethyl]amino}ethyl)-β-alaninamide bis-trifluoroacetic acid salt]	0.89
O=C(CCNCCc1ccc(Cl)cc1)N(CCNCCc1ccc(O)c2[nH]c(=O)sc12)C1CCCCCC1 [Example 51, N^3-[2-(4-Chlorophenyl)ethyl]-N^1-cycloheptyl-N^1-(2-{[2-(4-hydroxy-2-oxo-2,3-dihydro-1,3-benzothiazol-7-yl)ethyl]amino}ethyl)-β-alaninamide bis-trifluoroacetic acid salt]	0.59
CC(C)N(CCNCCc1ccc(O)c2[nH]c(=O)sc12)C(=O)CCNCCc1ccccc1 [Example 1, N-(2-{[2-(4-Hydroxy-2-oxo-2,3-dihydro-1,3-benzothiazol-7-yl)ethyl]amino}ethyl)-N-isopropyl-N^3-(2-phenylethyl)-β-alaninamide bis-trifluoroacetic acid salt]	0.78
O=C(CCNC[C@@H](O)c1ccccc1)N(CCNCCc1ccc(O)c2[nH]c(=O)sc12)C1CCCCC1 [Example 74, N^1-Cyclohexyl-N^1-(2-{[2-(4-hydroxy-2-oxo-2,3-dihydro-1,3-benzothiazol-7-yl)ethyl]amino}ethyl)-N^3-[(2S)-2-hydroxy-2-phenylethyl]-β-alaninamide bis-trifluoroacetic acid salt]	0.79
